Assay results from patent US20230322776A1, “NEW ARYL-PYRIDO-PYRIMIDIN-ONE DERIVATIVES” (Hoffmann-La Roche Inc., priority 2020, published 2023).

Columns and labels:
BRAF = BRAF (Homo sapiens, UniProt P15056); experiment: KD BRAF (Table 1; no method described); type: binding
[1] = test system: A375 cells (V600E mutated BRAF), ERK phospho-T202/Y204; experiment: HTRF assay for P-ERK determination in A375 cells (BRAF inhibition); type: cell-based; conditions: Homo sapiens, A-375, 1 hour drug incubation, DMSO = 100%, 10 μM Dabrafenib = 0%, top concentration 10 μM, read-out: P-ERK_A375: IC50
From the text: (§1) A375 is a cellular cancer model expressing V600E mutated BRAF and HCT116 a cellular cancer model expressing WT BRAF. First generation BRAF inhibitors such as e.g. dabrafenib induce a paradox effect on tumour cells in that they inhibit the growth of V600E mutated BRAF cells (such as e.g. A375), while they activate growth in WT BRAF cells (such as e.g. HCT 116). ERK 1,2 phosphorylation (terminal member of the phosphorylation cascade of the MAPK pathway) is hereafter reported as main readout for the activation status of the MAPK pathway. DMEM no-phenol red medium supplemented with L-glutamine was purchased from (Thermo Fisher Scientific). Fetal bovine serum (FBS) was purchased from VWR. Advanced ERK phospho-T202/Y204 kit—10,000 tests was purchased from Cisbio cat #64AERPEH. A375 (catalog #CRL-1619) and HCT116 (catalog #CCL-247) cells were originally obtained from American type Culture Collection (ATCC) and banked by the Roche repository. 384-Well microplates ultized were purchased from Greiner Bio-One, 384-well, (With Lid, HiBase, Low volume cat 784-080).
(§2) HTRF Assay for P-ERK Determination in A375 or HCT116 Cells
(§3) Prior to the assay, A375 and HCT116 cell lines are maintained in DMEM no-phenol red medium supplemented with 10% fetal bovine serum (FBS). Following compound treatment, P-ERK levels are determined by measuring FRET fluorescence signal induced by selective binding of two antibodies provided in the mentioned kit (Cisbio cat #64AERPEH) on ERK protein when phosphorylated at Thr202/Tyr204. Briefly, 8000 cells/well in 12 μl media/well are plated in the 384-well plate and left overnight in the incubator (at 37° C. with 5% CO2-humidified atmosphere), the following day the plate is treated in duplicate with test compounds, dabrafenib and PLX8394 (the latter two as controls) at the following final drug concentrations: 10 μM, 3 μM, 1 μM, 0.3 μM, 0.1 μM, 0.03 μM, 0.01 μM, 0.003 μM and 0.001 μM. All wells are subjected to DMSO normalization and drug incubation occurs for 1 hour. Then, 4 μl of a 4× lysis buffer supplied with the kit are added to the wells, the plate is then centrifuged for 30 second (3000 rpm) and incubated on a plate shaker for 1 h at rt.
(§4) At the end of the incubation 4 μl/well of advanced P-ERK antibody solution (prepared according to manufacturer's instruction) followed by 4 μl/well of criptate P-ERK antibody solution (prepared according to manufacturer's instruction) (Cisbio cat #64AERPEH) are added to test wells.
(§5) In order to allow proper data normalization, control wells non drug treated reported in the following table are always included in each plate (according to manufacturer's instruction):
(§6) The plate is then centrifuged at 3000 rpm for 30 seconds, sealed to prevent evaporation and incubated overnight in the dark at room temperature. The plate is then analyzed and fluorescence emission value collected through a Pherastast FSX (BMG Labtech) apparatus at […]. The obtained fluorescence values are processed according to the formula Ratio=[…]*10000 then the average of the ratio on the blank is subtracted to all values.
Data are normalized in the case of A375 cells (BRAF inhibition) considering the average of the ratio (blank subtracted) derived by DMSO only treated cells as 100% and by considering the average of the ratio (blank subtracted) derived by 10 μM Dabrafenib treated cells as 0%. Mean of the normalized points are fitted with sigmoidal curve and IC50 values are determined.

BRAF V660E = BRAF V660E (Homo sapiens, UniProt P15056, V600E); experiment: KD BRAF V660E (Table 1; no method described); type: binding
Sequence of BRAF V660E (P15056 2-766 V600E): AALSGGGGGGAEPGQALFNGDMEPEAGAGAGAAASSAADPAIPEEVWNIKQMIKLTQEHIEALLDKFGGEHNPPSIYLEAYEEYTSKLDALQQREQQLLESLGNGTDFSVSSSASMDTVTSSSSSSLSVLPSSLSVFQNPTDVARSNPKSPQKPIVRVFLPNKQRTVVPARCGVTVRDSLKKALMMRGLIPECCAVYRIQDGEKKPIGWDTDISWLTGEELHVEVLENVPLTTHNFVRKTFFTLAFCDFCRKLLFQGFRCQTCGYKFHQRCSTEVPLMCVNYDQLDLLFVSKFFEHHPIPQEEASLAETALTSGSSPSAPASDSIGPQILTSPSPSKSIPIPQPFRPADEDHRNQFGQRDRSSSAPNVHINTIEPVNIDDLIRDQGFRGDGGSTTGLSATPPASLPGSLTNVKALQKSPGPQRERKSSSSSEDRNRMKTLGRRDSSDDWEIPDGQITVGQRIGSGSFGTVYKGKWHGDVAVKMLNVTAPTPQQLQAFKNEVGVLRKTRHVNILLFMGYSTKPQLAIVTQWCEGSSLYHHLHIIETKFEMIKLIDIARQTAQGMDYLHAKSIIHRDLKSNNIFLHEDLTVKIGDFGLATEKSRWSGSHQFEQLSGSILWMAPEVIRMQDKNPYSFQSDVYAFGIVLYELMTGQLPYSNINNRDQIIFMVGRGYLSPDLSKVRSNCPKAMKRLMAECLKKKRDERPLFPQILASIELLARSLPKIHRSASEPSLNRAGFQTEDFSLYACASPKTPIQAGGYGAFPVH

[2] = test system: HCT116 cells (WT BRAF), ERK phospho-T202/Y204; experiment: HTRF assay for P-ERK determination in HCT116 cells (BRAF activation, paradox); type: cell-based; conditions: for EC50: Homo sapiens, HCT-116, HCT116 cells, 1 hour drug incubation, activation relative to maximum Dabrafenib-mediated activation (100%), top concentration 10 μM, read-out: P-ERK_HCT-116: EC50—50PCT; for Fold Selectivity HCT-116 EC50-50/ A375: ratio of P-ERK HCT-116 EC50-50PCT to P-ERK A375 IC50
From the text: as §1, §2, §3, §4, §5, §6
Data are normalized in the case of HCT116 cells (BRAF activation) considering the average of the ratio (blank subtracted) derived by DMSO only treated cells as 0% and by considering the average of the ratio (blank subtracted) derived by Dabrafenib treated cells at the concentration which provides the highest signal as 100%. Individual points are fitted with either sigmoidal or bell shape curves, the percentage of activation compared to maximum Dabrafenib-mediated activation is determined.

Sequence of BRAF (P15056 whole entry): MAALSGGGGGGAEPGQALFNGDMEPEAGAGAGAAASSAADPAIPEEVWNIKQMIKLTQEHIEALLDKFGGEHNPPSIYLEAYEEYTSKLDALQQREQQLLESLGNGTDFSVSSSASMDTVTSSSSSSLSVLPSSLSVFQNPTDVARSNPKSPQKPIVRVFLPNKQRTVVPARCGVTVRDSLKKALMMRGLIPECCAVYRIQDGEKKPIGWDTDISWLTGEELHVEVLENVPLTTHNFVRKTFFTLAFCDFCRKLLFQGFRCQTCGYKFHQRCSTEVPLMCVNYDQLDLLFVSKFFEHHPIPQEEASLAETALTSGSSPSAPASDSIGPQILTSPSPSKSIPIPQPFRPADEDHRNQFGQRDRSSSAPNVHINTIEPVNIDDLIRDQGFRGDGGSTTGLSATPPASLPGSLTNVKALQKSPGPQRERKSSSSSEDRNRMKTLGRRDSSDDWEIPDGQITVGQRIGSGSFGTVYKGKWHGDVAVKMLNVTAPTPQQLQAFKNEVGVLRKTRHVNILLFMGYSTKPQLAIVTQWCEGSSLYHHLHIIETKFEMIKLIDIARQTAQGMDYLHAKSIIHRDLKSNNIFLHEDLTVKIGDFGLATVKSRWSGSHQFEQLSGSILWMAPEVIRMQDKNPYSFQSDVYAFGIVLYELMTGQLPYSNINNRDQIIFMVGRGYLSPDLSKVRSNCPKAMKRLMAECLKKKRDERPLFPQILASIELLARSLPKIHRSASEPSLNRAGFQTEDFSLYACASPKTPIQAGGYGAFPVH

| Structure (SMILES) | Kd (BRAF) [nM] | IC50 [1] [nM] | Kd (BRAF V660E) [nM] | EC50 [2] [nM] | Fold Selectivity HCT-116 EC50-50/ A375 [2] |
| --- | --- | --- | --- | --- | --- |
| Cn1c(=O)c(-c2c(F)ccc(NS(=O)(=O)N3CC[C@@H](F)C3)c2F)cc2cnc(NCCc3cnc(CC(=O)OC(C)(C)C)nc3)nc21 [Example 48, tert-butyl 2-[5-[2-[[6-[2,6-difluoro-3-[[(3R)-3-fluoropyrrolidin-1-yl]sulfonylamino]phenyl]-8-methyl-7-oxopyrido[2,3-d]pyrimidin-2-yl]amino]ethyl]pyrimidin-2-yl]acetate] | 26.6 | 176 | 56.6 | 5920 | 33.7 |
| Cl.Cn1c(=O)c(-c2c(F)ccc(NS(=O)(=O)N3CC[C@@H](F)C3)c2F)cc2cnc(NCCOCCN)nc21 [Example 15, (3R)-N-[3-[2-[2-(2-aminoethoxy)ethylamino]-8-methyl-7-oxopyrido[2,3-d]pyrimidin-6-yl]-2,4-difluorophenyl]-3-fluoropyrrolidine-1-sulfonamide hydrochloride] | 81.7 | 617 | 194 | ≥ 10000 | 16.2 |
| CC(=O)NCCOCCOCCn1c(=O)c(-c2c(F)ccc(NS(=O)(=O)N3CC[C@@H](F)C3)c2F)cc2cnc(NCC3CC3)nc21 [Example 41, N-[2-[2-[2-[2-(cyclopropylmethylamino)-6-[2,6-difluoro-3-[[(3R)-3-fluoropyrrolidin-1-yl]sulfonylamino]phenyl]-7-oxopyrido[2,3-d]pyrimidin-8-yl]ethoxy]ethoxy]ethyl]acetamide] | 21.2 | 844 | 56.1 | ≥ 10000 | >11.8 |
| CN(C1CC1)S(=O)(=O)Nc1ccc(F)c(-c2cc3cnc(NCC4CC4)nc3n(C)c2=O)c1F [Example 12, 2-(cyclopropylmethylamino)-6-[3-[[cyclopropyl(methyl)sulfamoyl]amino]-2,6-difluorophenyl]-8-methyl-7-oxopyrido[2,3-d]pyrimidine] | 84.9 | 109 | 487 | 2220 | 20.4 |
| Cl.NCCOCCOCCn1c(=O)c(-c2c(F)ccc(NS(=O)(=O)N3CC[C@@H](F)C3)c2F)cc2cnc(NCC3CC3)nc21 [Example 39, (3R)—N-[3-[8-[2-[2-(2-aminoethoxy)ethoxy]ethyl]-2-(cyclopropylmethylamino)-7-oxopyrido[2,3-d]pyrimidin-6-yl]-2,4-difluorophenyl]-3-fluoropyrrolidine-1-sulfonamide; hydrochloride] | 13.4 | ≥ 10000 | 41.3 | ≥ 10000 | 1.0 |
| CC(=O)NCCOCCOCCNc1ncc2cc(-c3c(F)ccc(NS(=O)(=O)N4CC[C@@H](F)C4)c3F)c(=O)n(C)c2n1 [Example 32, N-[2-[2-[2-[[6-[2,6-difluoro-3-[[(3R)-3-fluoropyrrolidin-1-yl]sulfonylamino]phenyl]-8-methyl-7-oxopyrido[2,3-d]pyrimidin-2-yl]amino]ethoxy]ethoxy]ethyl]acetamide] | 23.6 | 196 | 70 | ≥ 10000 | >51.1 |
| CCN(C)S(=O)(=O)Nc1ccc(F)c(-c2cc3cnc(NCCOCCOCCO)nc3n(C)c2=O)c1F [Example 9, 6-[3-[[ethyl(methyl)sulfamoyl]amino]-2,6-difluorophenyl]-2-[2-[2-(2-hydroxyethoxy)ethoxy]ethylamino]-8-methyl-7-oxopyrido[2,3-d]pyrimidine] | 136 | 153 | 417 | ≥ 10000 | >65.4 |

The next compounds have a lower Kd (BRAF) than those just listed; values first:

| Kd (BRAF) [nM] | IC50 [1] [nM] | Kd (BRAF V660E) [nM] | EC50 [2] [nM] | Fold Selectivity HCT-116 EC50-50/ A375 [2] | Structure (SMILES) |
| --- | --- | --- | --- | --- | --- |
| 10.2 | 36.7 | 27 | 1650 | 44.9 | CC(=O)N1CCC(CCNc2ncc3cc(-c4c(F)ccc(NS(=O)(=O)N5CC[C@@H](F)C5)c4F)c(=O)n(C)c3n2)CC1 [Example 20, (3R)—N-[3-[2-[2-(1-acetylpiperidin-4-yl)ethylamino]-8-methyl-7-oxopyrido[2,3-d]pyrimidin-6-yl]-2,4-difluorophenyl]-3-fluoropyrrolidine-1-sulfonamide] |
| 9.4 | 271 | 27.5 | ≥ 10000 | >36.9 | CC(=O)N1CCC(O)(CCNc2ncc3cc(-c4c(F)ccc(NS(=O)(=O)N5CC[C@@H](F)C5)c4F)c(=O)n(C)c3n2)CC1 [Example 26, (3R)-N-[3-[2-[2-(1-acetyl-4-hydroxypiperidin-4-yl)ethylamino]-8-methyl-7-oxopyrido[2,3-d]pyrimidin-6-yl]-2,4-difluorophenyl]-3-fluoropyrrolidine-1-sulfonamide] |
| 5.7 | 37.3 | 22.1 | 1490 | 40.0 | CC(=O)NCc1ccc(CCNc2ncc3cc(-c4c(F)ccc(NS(=O)(=O)N5CC[C@@H](F)C5)c4F)c(=O)n(C)c3n2)cc1 [Example 35, N-[[4-[2-[[6-[2,6-difluoro-3-[[(3R)-3-fluoropyrrolidin-1-yl]sulfonylamino]phenyl]-8-methyl-7-oxopyrido[2,3-d]pyrimidin-2-yl]amino]ethyl]phenyl]methyl]acetamide] |
| 5.5 | 108 | 12.9 | 404 | 3.7 | CC(=O)N[C@H]1C[C@H](n2c(=O)c(-c3c(F)ccc(NS(=O)(=O)N4CC[C@@H](F)C4)c3F)cc3cnc(NCC4CC4)nc32)C1 [Example 43, trans-N-[3-[2-(cyclopropylmethylamino)-6-[2,6-difluoro-3-[[(3R)-3-fluoropyrrolidin-1-yl]sulfonylamino]phenyl]-7-oxopyrido[2,3-d]pyrimidin-8-yl]cyclobutyl]acetamide] |
| 2.2 | 49.5 | 4 | 463 | 9.4 | CCN(C)S(=O)(=O)Nc1cccc(-c2cc3cnc(NCCC4CCN(C(C)=O)CC4)nc3n(C)c2=O)c1C#N [Example 37, 2-[2-(1-acetylpiperidin-4-yl)ethylamino]-6-[2-cyano-3-[[ethyl(methyl)sulfamoyl]amino]phenyl]-8-methyl-7-oxopyrido[2,3-d]pyrimidine] |
| 1.8 | 11.5 | 4 | 681 | 59.1 | CC(=O)NCc1cccc(CCNc2ncc3cc(-c4c(F)ccc(NS(=O)(=O)N5CC[C@@H](F)C5)c4F)c(=O)n(C)c3n2)c1 [Example 34, N-[[3-[2-[[6-[2,6-difluoro-3-[[(3R)-3-fluoropyrrolidin-1-yl]sulfonylamino]phenyl]-8-methyl-7-oxopyrido[2,3-d]pyrimidin-2-yl]amino]ethyl]phenyl]methyl]acetamide] |
